What was measured:
[1] = target: T1, recombinant human Muscarinic M1 receptor (Homo sapiens, UniProt P11229); assay: Allosteric potency EC50 for Muscarinic M1 receptor, CHO pCRE-Luc reporter cell-based assay with EC20 of acetylcholine; conditions: CHO cells, human M1, luciferase reporter, in presence of EC20 of acetylcholine, 4 h
T1 sequence (P11229 1-460): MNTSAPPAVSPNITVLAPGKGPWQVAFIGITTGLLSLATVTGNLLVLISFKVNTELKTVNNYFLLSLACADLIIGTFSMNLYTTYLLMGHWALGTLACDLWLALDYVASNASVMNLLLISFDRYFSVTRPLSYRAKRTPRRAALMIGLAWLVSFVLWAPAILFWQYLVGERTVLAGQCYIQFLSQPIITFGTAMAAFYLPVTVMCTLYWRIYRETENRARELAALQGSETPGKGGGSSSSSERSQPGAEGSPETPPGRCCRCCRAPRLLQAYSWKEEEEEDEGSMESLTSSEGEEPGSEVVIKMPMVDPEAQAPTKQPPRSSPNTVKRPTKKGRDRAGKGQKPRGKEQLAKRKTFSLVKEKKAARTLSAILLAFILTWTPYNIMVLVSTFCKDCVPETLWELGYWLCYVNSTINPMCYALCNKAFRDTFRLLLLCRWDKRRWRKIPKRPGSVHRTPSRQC
Description: Determination of allosteric potency EC50 values for Muscarinic M1 receptor:
A stable CHO cell line expressing recombinant human Muscarinic M1 receptor and pCRE-Luc reporter system was used for cell-based assay. The assay offers a non-radioactive based approach to determine binding of a compound to GPCRs. In this specific assay, the level of intracellular cyclic AMP which is modulated by activation or inhibition of the receptor is measured. The recombinant cells harbor luciferase reporter gene under the control of cAMP response element.
The above cells were grown in 96 well clear bottom white plates in Hams F12 medium containing 10% fetal bovine serum (FBS). Prior to the addition of compounds or standard agonist, cells were serum starved overnight. Increasing concentrations of test compounds were added along with EC20 of acetylcholine in OptiMEM medium to the cells. The incubation was continued at 37° C. in CO2 incubator for 4 h. Medium was removed and cells were washed with phosphate buffered saline. The cells were lysed and luciferase activity was measured in a Luminometer. Luminescence counts in each concentrations of test item were normalized to the acetylcholine induced maximum response and the data was analyzed using Graphpad software. EC50 values of the compounds were defined as the concentration required in stimulating the luciferase activity by 50% in presence of EC20 of acetylcholine.

[2] = Rodent pharmacokinetic study; type: in vivo, Male Wistar rats; conditions: male, Wistar, rat, plasma; for bioavailability: oral 3 mg/kg vs i.v. 1 mg/kg, read-out: F (bioavailability)
Description: Rodent Pharmacokinetic Study
Male Wistar rats (260±50 grams) were used as experimental animals. Animals were housed individually in polypropylene cage. Two days prior to study, male Wistar rats were anesthetized with isoflurane for surgical placement of jugular vein catheter. Rats were randomly divided for oral (3 mg/kg) and intravenous (i.v) (1 mg/kg) dosing (n=3/group) and fasted overnight before oral dosing (p.o.). However, rats allocated to intravenous (i.v.) dosing food and water was provided ad libitum.
At pre-determined point, blood was collected through jugular vein and replenished with an equivalent volume of normal saline. Collected blood was transferred into a labelled eppendorf tube containing 10 μL of heparin as an anticoagulant. Typically blood samples were collected at following time points: 0.08, 0.25, 0.5, 1, 2, 4, 6, 8, and 24 h post dose. Blood was centrifuged at 4000 rpm for 10 minutes. Plasma was separated and stored frozen at −80° C. until analysis. The concentrations of the test compounds were quantified in plasma by qualified LC-MS/MS method using suitable extraction technique. The test compounds were quantified in the calibration range around 1-1000 ng/mL in plasma. Study samples were analyzed using calibration samples in the batch and quality control samples spread across the batch.
Pharmacokinetic parameters Cmax, Tmax (h), AUCt, T1/2, clearance and bioavailability (F) were calculated by non-compartmental model using standard non-compartmental model by using Phoenix WinNonlin 6.0.2 or 6.0.3 version Software package.

[3] = Rodent brain penetration study; type: in vivo, Male Wistar rats; conditions: male, Wistar, brain and plasma, po; rat, 3 mg/kg, p.o. @ 1.0 hr, brain-plasma ratio; read-out: Single dose Rat Brain Penetration (Cb/Cp)
Description: Rodent Brain Penetration Study
Male Wistar rats (260±40 grams) were used as experimental animals. Three animals were housed in each cage. Animals were given water and food ad libitum throughout the experiment and maintained on a 12 h light/dark cycle.
Brain penetration was determined in discrete manner in rats. One day prior to dosing day, male Wistar rats were acclimatized and randomly grouped according to their weight. At each time point (0.5, 1 and 2 h) n=3 animals were used.
The test compounds were suitably preformulated and administered orally at (free base equivalent) 3 mg/kg. Blood samples were removed via cardiac puncture by using isoflurane anesthesia. The animals were sacrificed to collect brain tissue. Plasma was separated and brain samples were homogenized and stored frozen at −20° C. until analysis. The concentrations of the test compounds in plasma and brain were determined using LC-MS/MS method.
The test compounds were quantified in plasma and brain homogenate by qualified LC-MS/MS method using suitable extraction technique. The test compounds were quantified in the calibration range of 1-500 ng/mL in plasma and brain homogenate. Study samples were analyzed using calibration samples in the batch and quality control samples spread across the batch.

Male Wistar rats = assay: Object recognition task model; type: in vivo; conditions: rat, p.o.; for Exploration time mean ± S.E.M, Familiar object / Exploration time mean ± S.E.M, Novel object: choice trial 24 h after T1
Description: Object Recognition Task Model
The cognition enhancing properties of compounds of this invention were estimated by using this model.
Male Wistar rats (8-10 weeks old) were used as experimental animals. Four animals were housed in each cage. Animals were kept on 20% food deprivation from a day prior to experimentation. Water was provided ad libitum throughout the experiment. Animals were maintained on a 12 h light/dark cycle in temperature and humidity controlled room. The experiment was carried out in circular arena made up of acrylic. Rats were habituated to individual arenas for up to 45 min in the absence of any objects on day 1.
One group of 12 rats received vehicle and another set of animals received compound of the formula (I), before the familiar (T1) and choice (T2) trials. During the familiarization phase, (T1), the rats were placed individually in the arena for 3 minutes, in which two identical objects (a1 and a2) were positioned 10 cm from the wall. 24 h after T1, trial for long-term memory test was performed. The same rats were placed in the same arena as they were placed in T1 trial. During the choice phase (T2) rats were allowed to explore the arena for 3 minutes in presence of a copy of familiar object (a3) and one novel object (b). During the T1 and T2 trial, explorations of each object (defined as sniffing, licking, chewing or having moving vibrissae whilst directing the nose towards the object at a distance of less than 1 cm) were recorded using stopwatch.
T1 is the total time spent exploring the familiar objects (a1+a2).
T2 is the total time spent exploring the familiar object and novel object (a3+b).
The object recognition test was performed as described by Ennaceur, A., Delacour, J., 1988, A new one-trial test for neurobiological studies of memory in rats—Behavioural data, Behav. Brain Res., 31, 47-59.

[4] = system: hippocampal θ rhythm, anesthetized male Wistar rats; assay: Theta modulation in dorsal hippocampus of anesthetized rats in combination with donepezil; type: in vivo

EC50 [1] | AUC(0-t) ([2]; iv, i.v. 1 mg/kg) | half-life ([2]; iv, i.v. 1 mg/kg) | clearance ([2]; iv, i.v. 1 mg/kg) | bioavailability [2] | AUC(0-t) ([2]; oral 3 mg/kg) | Cmax ([2]; oral 3 mg/kg) | Tmax ([2]; oral 3 mg/kg) | half-life ([2]; oral 3 mg/kg) | Kp at 1 h [3] | Structure (SMILES) | other results
555 nM | 346 ± 25 ng·h/mL | 0.8 ± 0.1 h | 48 ± 3.4 mL/min/kg | 13 ± 2.7% | 137 ± 28 ng·h/mL | 70 ± 23 ng/mL | 0.5 h | 1.9 ± 0.1 h | 1.27 ± 0.07 | Cc1c(Cc2ccccc2)cc(C(=O)N[C@H]2CCCC[C@@H]2O)c2ncccc12 [Example 14, N-(cis-1S,2S-2-Hydroxycyclohexyl)-6-benzyl-5-methylquinoline-8-carboxamide] | Inference (Male Wistar rats; 3 mg/kg): Active; Exploration time mean ± S.E.M, Familiar object (Male Wistar rats; 3 mg/kg): 8.35 ± 1.98 s; Exploration time mean ± S.E.M, Novel object (Male Wistar rats; 3 mg/kg): 15.54 ± 3.58 s
197 nM | 6860 ± 1810 ng·h/mL | 3.1 ± 0.3 h | 2.5 ± 0.6 mL/min/kg | 40 ± 11% | 8190 ± 2180 ng·h/mL | 1540 ± 397 ng/mL | 2 h | 3.7 ± 0.3 h | 0.78 ± 0.22 | Cc1c(Cc2ccc(-c3cnn(C)c3)cc2)cc(C(=O)N[C@H]2CCCC[C@@H]2O)c2ncccc12 [Example 15, N-(cis-1S,2S-2-Hydroxycyclohexyl)-6-[4-(1-methyl-1H-pyrazol-4-yl)-benzyl]-5-methylquinoline-8-carboxamide] | Inference (Male Wistar rats; 1 mg/kg): Active; Exploration time mean ± S.E.M, Familiar object (Male Wistar rats; 1 mg/kg): 12.93 ± 1.83 s; Exploration time mean ± S.E.M, Novel object (Male Wistar rats; 1 mg/kg): 20.42 ± 3.42 s

Structure (SMILES) | EC50 [1] | AUC(0-t) ([2]; iv, i.v. 1 mg/kg) | half-life ([2]; iv, i.v. 1 mg/kg) | clearance ([2]; iv, i.v. 1 mg/kg) | bioavailability [2] | AUC(0-t) ([2]; oral 3 mg/kg) | Cmax ([2]; oral 3 mg/kg) | Tmax ([2]; oral 3 mg/kg) | half-life ([2]; oral 3 mg/kg) | Kp at 1 h [3] | other results
Cc1c(Cc2ccc(-c3cnn(C)c3)cc2F)cc(C(=O)N[C@H]2CCCC[C@@H]2O)c2ncccc12 [Example 11, N-(cis-1S,2S-2-Hydroxycyclohexyl)-6-[2-fluoro-4-(1-methyl-1H-pyrazol-4-yl)-benzyl]-5-methylquinoline-8-carboxamide] | 100 nM | 12800 ± 2150 ng·h/mL | 3.9 ± 0.2 h | 1.3 ± 0.2 mL/min/kg | 105 ± 25% | 40300 ± 9420 ng·h/mL | 9690 ± 1420 ng/mL | 1 to 2 h | 4.8 ± 1.6 h | 0.14 ± 0.01 | Inference (Male Wistar rats; 0.3 mg/kg): Active; Exploration time mean ± S.E.M, Familiar object (Male Wistar rats; 0.3 mg/kg): 12.20 ± 1.89 s; Exploration time mean ± S.E.M, Novel object (Male Wistar rats; 0.3 mg/kg): 17.33 ± 1.39 s; Mean area under the curve values (AUC) of θ power change compared with donepezil alone ([4]; Example 11 (1 mg/kg, i.v.) and donepezil (0.3 mg/kg, i.v.) vs donepezil alone): significantly higher compared to donepezil alone; effect on θ power of combination treatment compared with donepezil alone ([4]; Example 11 (1 mg/kg, i.v.) in combination with donepezil (0.3 mg/kg, i.v.) vs donepezil alone): significantly higher than the donepezil alone; θ power levels ([4]; Example 11 (1 mg/kg, i.v.) in combination with donepezil (0.3 mg/kg, i.v.), anesthetized rat): significant increase

From patent publication US11278530B2, “Polycyclic amides as muscarinic M1 receptor positive allosteric modulators” (SUVEN LIFE SCIENCES LIMITED, priority 2017, dated 2022)
